Data taken from patent US10160755B2 (Plexxikon Inc., priority 2015, dated 2018).

How the values were obtained:
FLT3-ITD = molecular target: T1, FLT3-ITD (Homo sapiens, UniProt P36888); test: FLT3-ITD biochemical kinase assay (AlphaScreen)
T1 construct: FLT3-ITD; Invitrogen #PV6190
T1 sequence (P36888 1-993): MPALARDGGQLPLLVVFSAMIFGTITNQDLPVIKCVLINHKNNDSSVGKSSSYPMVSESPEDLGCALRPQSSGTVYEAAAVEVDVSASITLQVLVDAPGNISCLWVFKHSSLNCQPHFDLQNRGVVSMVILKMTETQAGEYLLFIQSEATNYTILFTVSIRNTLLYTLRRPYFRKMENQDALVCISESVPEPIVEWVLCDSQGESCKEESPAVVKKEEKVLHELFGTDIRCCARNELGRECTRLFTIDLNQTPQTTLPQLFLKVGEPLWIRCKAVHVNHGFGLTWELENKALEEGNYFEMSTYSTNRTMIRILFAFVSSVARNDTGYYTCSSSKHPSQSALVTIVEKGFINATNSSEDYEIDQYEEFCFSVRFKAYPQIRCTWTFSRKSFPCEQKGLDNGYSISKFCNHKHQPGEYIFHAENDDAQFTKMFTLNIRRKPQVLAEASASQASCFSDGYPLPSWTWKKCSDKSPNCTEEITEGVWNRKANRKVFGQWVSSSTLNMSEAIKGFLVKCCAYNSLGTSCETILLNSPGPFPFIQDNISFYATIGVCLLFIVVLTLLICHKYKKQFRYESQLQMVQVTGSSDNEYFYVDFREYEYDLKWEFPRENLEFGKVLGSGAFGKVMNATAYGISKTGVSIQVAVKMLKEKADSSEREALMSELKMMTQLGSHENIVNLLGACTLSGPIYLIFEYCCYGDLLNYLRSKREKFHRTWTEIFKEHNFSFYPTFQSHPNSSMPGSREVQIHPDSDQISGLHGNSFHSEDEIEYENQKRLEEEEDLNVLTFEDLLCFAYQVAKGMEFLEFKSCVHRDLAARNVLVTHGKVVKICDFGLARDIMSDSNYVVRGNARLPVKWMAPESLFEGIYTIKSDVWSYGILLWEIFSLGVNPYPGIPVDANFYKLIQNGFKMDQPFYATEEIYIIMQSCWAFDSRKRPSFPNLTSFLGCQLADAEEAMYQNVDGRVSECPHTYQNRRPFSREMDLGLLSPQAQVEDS
In short: (§1)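 Recombinant kinase, biotin-GG(EEEEY)10EE 30 nM final, ATP 10 μM (D835Y) / 100 μM (ITD). Stop/detect: SA donor beads 20 min RT, then PY20 acceptor beads 60 min RT. AlphaScreen 580 nm signal; IC50.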

FLT3-D835Y = molecular target: T2, FLT3-D835Y (Homo sapiens, UniProt P36888, D835Y); test: FLT3-D835Y biochemical kinase assay (AlphaScreen)
T2 construct: purchased Invitrogen PV3967
T2 sequence (P36888 27-993 D835Y): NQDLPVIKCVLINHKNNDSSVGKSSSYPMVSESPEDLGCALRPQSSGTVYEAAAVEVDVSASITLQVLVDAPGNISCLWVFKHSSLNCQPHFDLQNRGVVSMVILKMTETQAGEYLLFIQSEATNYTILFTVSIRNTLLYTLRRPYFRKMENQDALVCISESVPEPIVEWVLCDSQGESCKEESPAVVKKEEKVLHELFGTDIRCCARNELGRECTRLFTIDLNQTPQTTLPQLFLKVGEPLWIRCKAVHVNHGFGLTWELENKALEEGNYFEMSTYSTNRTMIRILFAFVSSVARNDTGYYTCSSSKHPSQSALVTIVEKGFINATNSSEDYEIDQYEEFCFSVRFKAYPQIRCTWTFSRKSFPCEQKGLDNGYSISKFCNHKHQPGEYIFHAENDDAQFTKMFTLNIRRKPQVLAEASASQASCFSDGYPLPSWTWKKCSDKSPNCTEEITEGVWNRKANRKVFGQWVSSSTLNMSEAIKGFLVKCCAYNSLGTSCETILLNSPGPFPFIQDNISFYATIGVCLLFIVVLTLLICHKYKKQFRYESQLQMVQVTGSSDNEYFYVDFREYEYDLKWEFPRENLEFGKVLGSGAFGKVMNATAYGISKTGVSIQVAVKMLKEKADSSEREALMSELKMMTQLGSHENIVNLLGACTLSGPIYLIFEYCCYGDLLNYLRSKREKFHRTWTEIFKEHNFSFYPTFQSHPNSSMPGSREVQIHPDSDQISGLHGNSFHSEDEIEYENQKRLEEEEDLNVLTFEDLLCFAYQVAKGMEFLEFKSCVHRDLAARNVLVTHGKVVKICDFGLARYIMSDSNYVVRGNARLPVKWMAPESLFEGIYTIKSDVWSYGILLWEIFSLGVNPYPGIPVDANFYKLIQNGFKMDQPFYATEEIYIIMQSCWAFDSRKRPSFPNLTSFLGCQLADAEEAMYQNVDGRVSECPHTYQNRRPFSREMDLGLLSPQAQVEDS
In short: as §1

c-Kit = c-Kit (Homo sapiens, UniProt P10721); test: c-Kit biochemical assay (per US 2007/0032519)
Experimental: The following Table 2 provides data indicating FLT3 ITD, FLT3 D835Y, and KIT biochemical activity, and BaF3 FLT3 ITD/F69L cellular inhibitory activity for exemplary compounds described in this disclosure. In the table below, activity is provided as follows: +++=0.0001<IC50<1 μM; ++=1 μM<IC50<10 μM, +=10 μM<IC50<200 μM. Assays for the biochemical activity of c-Kit and FMS were conducted according to those assays described in US Patent Application Publication number US 2007/0032519, the disclosure of which is hereby incorporated by reference in its entirety.

c-Kit, sequence (P10721 26-976): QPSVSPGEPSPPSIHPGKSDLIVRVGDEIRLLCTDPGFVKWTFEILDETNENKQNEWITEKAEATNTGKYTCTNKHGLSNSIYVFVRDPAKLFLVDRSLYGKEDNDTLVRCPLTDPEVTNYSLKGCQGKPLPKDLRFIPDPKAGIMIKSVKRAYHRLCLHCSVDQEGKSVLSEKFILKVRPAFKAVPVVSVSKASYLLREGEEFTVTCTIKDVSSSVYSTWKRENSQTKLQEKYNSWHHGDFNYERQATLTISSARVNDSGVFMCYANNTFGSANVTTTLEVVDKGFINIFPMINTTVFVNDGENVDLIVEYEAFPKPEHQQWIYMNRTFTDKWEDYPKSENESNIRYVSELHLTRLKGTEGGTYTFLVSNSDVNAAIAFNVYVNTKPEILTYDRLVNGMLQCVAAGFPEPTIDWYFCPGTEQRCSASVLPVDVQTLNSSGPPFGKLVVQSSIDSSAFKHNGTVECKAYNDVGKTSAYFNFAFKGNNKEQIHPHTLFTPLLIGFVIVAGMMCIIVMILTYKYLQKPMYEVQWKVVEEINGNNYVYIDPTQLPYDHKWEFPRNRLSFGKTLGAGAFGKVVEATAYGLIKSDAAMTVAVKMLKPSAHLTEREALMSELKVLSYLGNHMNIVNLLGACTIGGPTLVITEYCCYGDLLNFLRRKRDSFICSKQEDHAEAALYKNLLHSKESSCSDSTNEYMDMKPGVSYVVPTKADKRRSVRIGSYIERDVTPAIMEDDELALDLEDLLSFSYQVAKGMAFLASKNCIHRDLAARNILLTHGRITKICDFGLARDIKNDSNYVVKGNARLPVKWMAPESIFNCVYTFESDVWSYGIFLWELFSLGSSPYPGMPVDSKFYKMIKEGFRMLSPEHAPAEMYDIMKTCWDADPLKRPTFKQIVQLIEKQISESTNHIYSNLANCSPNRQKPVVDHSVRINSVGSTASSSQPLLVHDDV

Row | SMILES | IC50 (FLT3-ITD) | IC50 (FLT3-D835Y) | IC50 (c-Kit)
1 | CS(=O)(=O)Nc1cccc(-c2cnc3[nH]cc(-c4ccc5ncsc5c4)c3n2)c1 [P-054, N-[3-[7-(1,3-benzothiazol-6-yl)-5H-pyrrolo[2,3-b]pyrazin-2-yl]phenyl]methanesulfonamide] | 0.0001 to 1 µM | 0.0001 to 1 µM | 1 to 10 µM
2 | CC(C)(C)n1cnc2ccc(-c3c[nH]c4ncc(-c5ccc(C(=O)O)nc5)nc34)cc21 [P-376, 5-[7-(3-tert-butylbenzimidazol-5-yl)-5H-pyrrolo[2,3-b]pyrazin-2-yl]pyridine-2-carboxylic acid] | 0.0001 to 1 µM | 0.0001 to 1 µM | 0.0001 to 1 µM
3 | Cn1cnc2ccc(-c3c[nH]c4ncc(-c5cccc(S(=O)(=O)N6CCCC6)c5)cc34)cc21 [P-122, 1-methyl-6-[5-(3-pyrrolidin-1-ylsulfonylphenyl)-1H-pyrrolo[2,3-b]pyridin-3-yl]benzimidazole] | 0.0001 to 1 µM | 0.0001 to 1 µM | 1 to 10 µM
4 | CS(=O)(=O)Nc1cccc(-c2cnc3[nH]cc(-c4ccc5c(c4)N(CC(F)(F)F)CCO5)c3n2)c1 [P-087, N-[3-[7-[4-(2,2,2-trifluoroethyl)-2,3-dihydro-1,4-benzoxazin-6-yl]-5H-pyrrolo[2,3-b]pyrazin-2-yl]phenyl]methanesulfonamide] | 0.0001 to 1 µM | 0.0001 to 1 µM | 10 to 200 µM
5 | CC(C)(C)n1cnc2ccc(-c3c[nH]c4ncc(-c5cncc(F)c5)nc34)cc21 [P-386, 7-(3-tert-butylbenzimidazol-5-yl)-2-(5-fluoro-3-pyridyl)-5H-pyrrolo[2,3-b]pyrazine] | 0.0001 to 1 µM |  | 1 to 10 µM
6 | CC(C)(C)n1cnc2ccc(-c3c[nH]c4ncc(-c5cncc(N6CCOCC6)c5)nc34)cc21 [P-387, 4-[5-[7-(3-tert-butylbenzimidazol-5-yl)-5H-pyrrolo[2,3-b]pyrazin-2-yl]-3-pyridyl]morpholine] | 0.0001 to 1 µM |  | 0.0001 to 1 µM
7 | Cc1nn(C)cc1-c1cnc2[nH]cc(-c3ccc4ncn(C(C)(C)C)c4c3)c2n1 [P-324, 7-(3-tert-butylbenzimidazol-5-yl)-2-(1,3-dimethylpyrazol-4-yl)-5H-pyrrolo[2,3-b]pyrazine] | 0.0001 to 1 µM |  | 0.0001 to 1 µM
8 | CC(C)(C)n1cnc2ccc(-c3c[nH]c4ncc(-c5cnc(Cl)nc5)nc34)cc21 [P-389, 7-(3-tert-butylbenzimidazol-5-yl)-2-(2-chloropyrimidin-5-yl)-5H-pyrrolo[2,3-b]pyrazine] | 0.0001 to 1 µM |  | 10 to 200 µM
9 | Cc1nn(C)cc1-c1ccc(-c2cnc3[nH]cc(-c4ccc5ncn(C(C)(C)C)c5c4)c3n2)cc1 [P-323, 7-(3-tert-butylbenzimidazol-5-yl)-2-[4-(1,3-dimethylpyrazol-4-yl)phenyl]-5H-pyrrolo[2,3-b]pyrazine] | 0.0001 to 1 µM |  | 1 to 10 µM
10 | CC(C)(C)n1cnc2ccc(-c3c[nH]c4ncc(-c5cnc(NS(C)(=O)=O)nc5)nc34)cc21 [P-404, N-[5-[7-(3-tert-butylbenzimidazol-5-yl)-5H-pyrrolo[2,3-b]pyrazin-2-yl]pyrimidin-2-yl]methanesulfonamide] | 0.0001 to 1 µM |  | 1 to 10 µM

The next lines start with the values.

Row | IC50 (FLT3-ITD) | IC50 (FLT3-D835Y) | IC50 (c-Kit) | SMILES
11 | 1 to 10 µM | 1 to 10 µM | 10 to 200 µM | Cc1nc2cc(-c3c[nH]c4ncccc34)ccc2[nH]1 [P-012, 2-methyl-5-(1H-pyrrolo[2,3-b]pyridin-3-yl)-1H-benzimidazole]
12 | 0.0001 to 1 µM | 0.0001 to 1 µM | 1 to 10 µM | CNS(=O)(=O)c1cccc(-c2cnc3[nH]cc(-c4ccc5ncn(C)c5c4)c3n2)c1 [P-057, N-methyl-3-[7-(3-methylbenzimidazol-5-yl)-5H-pyrrolo[2,3-b]pyrazin-2-yl]benzenesulfonamide]
13 | 0.0001 to 1 µM | 0.0001 to 1 µM | 1 to 10 µM | COc1cccc(-c2cnc3[nH]cc(-c4ccc5ncn(C)c5c4)c3c2)c1 [P-088, 5-(3-methoxyphenyl)-3-(3-methylbenzimidazol-5-yl)-1H-pyrrolo[2,3-b]pyridine]
14 | 0.0001 to 1 µM | 0.0001 to 1 µM | 10 to 200 µM | COc1cc(-c2cnc3[nH]cc(-c4ccc5ncn(C)c5c4)c3c2)cc(C)n1 [P-124, 5-(2-methoxy-6-methyl-4-pyridyl)-3-(3-methylbenzimidazol-5-yl)-1H-pyrrolo[2,3-b]pyridine]
15 | 0.0001 to 1 µM | 0.0001 to 1 µM | 10 to 200 µM | COc1cc(-c2cnc3[nH]cc(-c4ccc5ncn(C)c5c4)c3c2)cc(OC)n1 [P-123, 5-(2,6-dimethoxy-4-pyridyl)-3-(3-methylbenzimidazol-5-yl)-1H-pyrrolo[2,3-b]pyridine]
16 | 0.0001 to 1 µM | 0.0001 to 1 µM | 10 to 200 µM | Cn1cnc2ccc(-c3c[nH]c4ncc(Cl)cc34)cc21 [P-019, 5-chloro-3-(3-methylbenzimidazol-5-yl)-1H-pyrrolo[2,3-b]pyridine]
17 | 0.0001 to 1 µM | 0.0001 to 1 µM | 10 to 200 µM | Cn1cnc2ccc(-c3c[nH]c4ncc(C#N)cc34)cc21 [P-020, 3-(3-methylbenzimidazol-5-yl)-1H-pyrrolo[2,3-b]pyridine-5-carbonitrile]
18 | 0.0001 to 1 µM | 0.0001 to 1 µM | 10 to 200 µM | COc1cnc2[nH]cc(-c3ccc4ncn(CC5CC5)c4c3)c2c1 [P-062, 1-(cyclopropylmethyl)-6-(5-methoxy-1H-pyrrolo[2,3-b]pyridin-3-yl)benzimidazole]
19 | 0.0001 to 1 µM | 0.0001 to 1 µM | 1 to 10 µM | COc1cc(-c2cnc3[nH]cc(-c4ccc5ncn(C)c5c4)c3c2)ccn1 [P-042, 5-(2-methoxy-4-pyridyl)-3-(3-methylbenzimidazol-5-yl)-1H-pyrrolo[2,3-b]pyridine]
20 | 0.0001 to 1 µM | 0.0001 to 1 µM | 1 to 10 µM | CC(C)S(=O)(=O)Nc1cccc(-c2cnc3[nH]cc(-c4ccc5ncn(C)c5c4)c3c2)c1 [P-096, N-[3-[3-(3-methylbenzimidazol-5-yl)-1H-pyrrolo[2,3-b]pyridin-5-yl]phenyl]propane-2-sulfonamide]
21 | 1 to 10 µM | 10 to 200 µM | 10 to 200 µM | c1cnc2[nH]cc(-c3ccc4[nH]nnc4c3)c2c1 [P-005, 5-(1H-pyrrolo[2,3-b]pyridin-3-yl)-1H-benzotriazole]
22 | 1 to 10 µM |  | 1 to 10 µM | Nc1n[nH]c2ccc(-c3c[nH]c4ncccc34)cc12 [P-006, 5-(1H-pyrrolo[2,3-b]pyridin-3-yl)-1H-indazol-3-amine]
